# System: HSV-2 G strain
# Test: HSV-2 Antiviral Assay (Vero cells, cell viability)
# Format: cell-based
# Conditions: Human alphaherpesvirus 2, Vero, 120 h, Vero cells, 160 TCID50 HSV-2 G strain, 5 days, cell viability
# Protocol: Vero cells were cultured in Dulbecco's Modified Eagle Medium (DMVEM) supplemented with […] and 100 units/mL penicillin and streptomycin. The cells were passaged 2-3 times per week to maintain sub-confluent densities.
# Vero cells were seeded into 96-well plates at a density of 1.0×10^4 cells per well and allowed to attach overnight. Following attachment, the media was replaced with 50 μL of infection medium (DMEM supplemented with 2% fetal bovine serum and 100 units/mL penicillin and streptomycin). A Tecan D300e digital dispenser was then used to add compounds to the culture using an 8-point 3-fold serial dilution format. The DMSO concentration was normalized to 0.5% for all treatments. Following compound addition, 50 μL of infection medium containing 160 TCID50 HSV-2 G strain was added to the cells and incubated at 37° C. for 5 days. After the incubation, 10 μL/well of WST-8 chromogenic reagent was added and the plates incubated at 37° C. for 3 hours. Following the incubation, cell viability was quantified by measuring the absorbance at 460 nm and 620 nm using a Tecan Infinite M1000 Pro plate reader.
row,SMILES,EC50 [nM]
1,Cc1nc(N2CCCN(c3ccc(-c4cc(F)cc(F)c4O)cc3)C2=O)sc1S(N)(=O)=O [Compound 215],< 100
2,Cc1nc(N2CC(C)CN(c3ccc(-c4ccccc4Cl)cc3)C2=O)sc1S(N)(=O)=O (stereo not drawn) [Compound 321],< 100
3,COc1cc(-c2ccc(N3CCCN(c4nc(C)c(S(N)(=O)=O)s4)C3=O)cc2)c2nsnc2c1 [Compound 303],< 100
4,"CN=[S@](C)(=O)c1sc(N2CCCN(c3ccc(-c4cc(F)ccc4F)cc3)C2=O)nc1C (single isomer, unassigned) [Compound 153]",100 to 1000
5,Cc1nc(N2CCCN(c3ccc(-c4cc(C(C)(C)C)ccc4F)cc3)C2=O)sc1S(N)(=O)=O [Compound 204],1000 to 5000
6,Cc1nc(N2CCCN(c3ccc(-c4ccccc4C4(C#N)CC4)cc3)C2=O)sc1S(N)(=O)=O [Compound 23],1000 to 5000
7,COc1cc(-c2ccc(N3CCCN(c4nc(C)c(S(N)(=O)=O)s4)C3=O)cc2)c2ccn(C)c2c1 [Compound 301],< 100
8,Cc1nc(N2CCCN(c3ccc(-c4cccc5cc(N)ncc45)cc3)C2=O)sc1S(N)(=O)=O [Compound 268],< 100
9,Cc1nc(N2CCCN(c3ccc(-c4c(F)ccc5ncsc45)cc3)C2=O)sc1S(N)(=O)=O [Compound 70],< 100
10,"CN=[S@](C)(=O)c1sc(N2CCCN(c3ccc(-c4ccccc4F)cc3)C2=O)nc1C (single isomer, unassigned) [Compound 146]",100 to 1000
11,"Cc1nc(N2C(=O)N(c3ccc(-c4cc(F)ccc4F)cc3)CC[C@H]2C)sc1S(N)(=O)=O (single isomer, unassigned) [Compound 108]",< 100
12,COc1ccncc1-c1ccc(N2CCCN(c3nc(C)c(S(N)(=O)=O)s3)C2=O)cc1 [Compound 233],100 to 1000
13,Cc1nc(N2CCCN(c3ccc(-c4cc(C(F)(F)F)cc5nsnc45)cc3)C2=O)sc1S(N)(=O)=O [Compound 244],< 100
14,Cc1nc(N2CCCN(c3ccc(-c4ccccc4)c4sncc34)C2=O)sc1S(N)(=O)=O [Compound 312],1000 to 5000
15,Cc1nc(N2CCCN(c3ccc(-c4cc(F)cc5cc(C#N)sc45)cc3)C2=O)sc1S(N)(=O)=O [Compound 276],< 100
16,"Cc1nc(N2C[C@@H](C)CN(c3ccc(-c4ccccc4)cc3)C2=O)sc1S(N)(=O)=O (single isomer, unassigned) [Compound 328]",< 100
17,CSc1ccccc1-c1ccc(N2CCCN(c3nc(C)c(S(N)(=O)=O)s3)C2=O)cc1 [Compound 11],< 100
18,Cc1nc(N2CCCN(c3ccc(-c4cc(C(F)(F)F)cc5c4c(F)cn5C)cc3)C2=O)sc1S(N)(=O)=O [Compound 297],100 to 1000
19,Cc1nc(N2CCCN(c3ccc(-c4cc(Cl)ccn4)cc3)C2=O)sc1S(N)(=O)=O [Compound 185],< 100
20,Cc1cc(F)cc(-c2ccc(N3CCCN(c4nc(C)c(S(N)(=O)=O)s4)C3=O)cc2)n1 [Compound 237],< 100
21,Cc1nc(N2CCCN(c3ccc(-c4cc(C(F)(F)F)cc5nn(C)cc45)cc3)C2=O)sc1S(N)(=O)=O [Compound 289],1000 to 5000
22,Cc1nc(N2CCN(c3ccc(-c4cc(F)cc5nsnc45)cc3)C2=O)sc1S(N)(=O)=O [Compound 314],< 100
23,Cc1nc(N2CCCN(c3ccc(-c4snc5c(F)cc(F)c(F)c45)cc3)C2=O)sc1S(N)(=O)=O [Compound 308],100 to 1000
24,Cc1nc(N2CCCN(c3ccc(-c4cccc5nc(N)sc45)cc3)C2=O)sc1S(N)(=O)=O [Compound 69],< 100
25,Cc1nc(N2CCCN(c3ccc(-c4cccc5c4OCO5)cc3)C2=O)sc1S(N)(=O)=O [Compound 81],100 to 1000
26,Cc1nc(N2CCCN(c3ccc(-c4cc(F)ccc4SC(F)(F)F)cc3)C2=O)sc1S(N)(=O)=O [Compound 219],100 to 1000
27,COc1cc(-c2ccc(N3CCCN(c4nc(C)c(S(N)(=O)=O)s4)C3=O)cc2)c2scnc2c1 [Compound 252],< 100
28,Cc1cc(Cl)c(F)c(-c2ccc(N3CCCN(c4nc(C)c(S(N)(=O)=O)s4)C3=O)cc2)n1 [Compound 236],< 100

# More lines, now with the values ahead:
row,EC50 [nM],SMILES
1,< 100,"Cc1nc(N2CC3(COC3)CN(c3ccc(-c4cc(F)ccc4F)cc3)C2=O)sc1[S@@](C)(=N)=O (single isomer, unassigned) [Compound 432]"
2,< 100,"COc1ccc(F)cc1-c1ccc(N2C[C@H](C)CN(c3nc(C)c(S(N)(=O)=O)s3)C2=O)cc1 (single isomer, unassigned) [Compound 331]"
3,100 to 1000,Cc1nc(N2CCCN(c3ccc(-c4cc(F)ccc4F)cc3)C2=O)sc1S(=O)(=O)N1CC[C@@H](N)C1 [Compound 399]
4,100 to 1000,COc1c(F)cc(F)cc1-c1ccc(N2CC(C(C)(C)O)CN(c3nc(C)c(S(N)(=O)=O)s3)C2=O)cc1 (stereo not drawn) [Compound 345]
5,< 100,"Cc1nc(N2CC[C@@H](C)N(c3ccc(-c4cc(F)ccc4F)cc3)C2=O)sc1S(N)(=O)=O (single isomer, unassigned) [Compound 333]"
6,< 100,Cc1nc(N2CC(F)CN(c3ccc(-c4cc(F)ccc4F)cc3)C2=O)sc1S(=O)(=O)NCCO (stereo not drawn) [Compound 413]
7,< 100,Cc1nc(N2CCC(C)N(c3ccc(-c4cc(F)ccc4F)cc3)C2=O)sc1S(N)(=O)=O (stereo not drawn) [Compound 332]
8,< 100,"Cc1nc(N2C[C@@H](C(F)(F)F)CN(c3ccc(-c4cc(F)ccc4F)cc3)C2=O)sc1S(N)(=O)=O (single isomer, unassigned) [Compound 371]"
9,< 100,"Cc1nc(N2C[C@H](F)CN(c3ccc(-c4cc(F)ccc4F)cc3)C2=O)sc1S(=O)(=O)NCCO (single isomer, unassigned) [Compound 414]"
10,< 100,"Cc1nc(N2C[C@@H](F)CN(c3ccc(-c4cc(F)ccc4F)cc3)C2=O)sc1S(N)(=O)=O (single isomer, unassigned) [Compound 365]"
11,< 100,Cc1nc(N2CCCCN(c3ccc(-c4cccc5ncsc45)cc3)C2=O)sc1S(C)(=N)=O (stereo not drawn) [Compound 428]
12,100 to 1000,Cc1nc(N2CC(C(C)(C)O)CN(c3ccc(-c4snc5ccccc45)cc3)C2=O)sc1S(N)(=O)=O (stereo not drawn) [Compound 348]
13,100 to 1000,"COc1c(F)cc(F)cc1-c1ccc(N2C[C@@H](C(C)(C)O)CN(c3nc(C)c(S(N)(=O)=O)s3)C2=O)cc1 (single isomer, unassigned) [Compound 346]"
14,100 to 1000,"Cc1nc(N2C[C@@H](C(N)=O)CN(c3ccc(-c4cc(F)ccc4F)cc3)C2=O)sc1S(N)(=O)=O (single isomer, unassigned) [Compound 383]"
15,100 to 1000,"COc1c(F)cc(F)cc1-c1ccc(N2C[C@H](C(C)(C)O)CN(c3nc(C)c(S(N)(=O)=O)s3)C2=O)cc1 (single isomer, unassigned) [Compound 347]"
16,< 100,COC(=O)C1CN(c2ccc(-c3cc(F)ccc3F)cc2)C(=O)N(c2nc(C)c(S(N)(=O)=O)s2)C1 (stereo not drawn) [Compound 384]
17,< 100,Cc1nc(N2CC3(COC3)CN(c3ccc(-c4cc(F)ccn4)cc3)C2=O)sc1S(N)(=O)=O [Compound 379]
18,< 100,CCCS(=N)(=O)c1sc(N2CCCN(c3ccc(-c4cc(F)cc(F)c4F)cc3)C2=O)nc1C (stereo not drawn) [Compound 423]
19,< 100,COc1c(F)cc(F)cc1-c1ccc(N2CC(F)CN(c3nc(C)c(S(N)(=O)=O)s3)C2=O)cc1 (stereo not drawn) [Compound 366]
20,1000 to 5000,"CO[C@H]1CN(c2ccc(-c3cc(F)ccc3F)cc2)C(=O)N(c2nc(C)c(S(N)(=O)=O)s2)C1 (single isomer, unassigned) [Compound 359]"
